# From publication PMC6688371, “Effect of the inhaled PDE4 inhibitor CHF6001 on biomarkers of inflammation in COPD” (Respiratory Research, 2019)
# Read-outs that look alike come from different tables or passages of the source.
# Tests used:
# [1] = Sputum concentration of CHF6001; assay type: in vivo, human; conditions: for concentration at 2 h: sputum, mean of all values measured on Days 20, 26 and 32, geometric mean (%CV), read-out: Sputum concentration at 2 h post-dose
# Experimental: The mean changes from baseline to Day 32 for lung function, CAT and TDI were analysed using similar methodology to sputum biomarkers, but were not log-transformed. […] The sputum concentration of CHF6001 was also evaluated at 2 h post-dose, using the mean of all values measured on Days 20, 26 and 32. Pharmacokinetic variables were summarised using geometric means and coefficients of variation, except for Tmax,ss, which is presented as median (range). […]
# (§1) Only one of the sputum samples induced at 2 h post-dose on Days 20, 26 or 32 was used to evaluate CHF6001 concentration, with the evaluation performed only if a minimum of 300 mg of residual sputum remained. Approximately 30 mg of sputum plug was transferred to a polypropylene cryotube, and was shipped in an upright position at –80C to a central laboratory for analysis. The concentration of CHF6001 was evaluated using a LC-MS/MS method following solid phase extraction. Validation procedures were the same as those listed above for biomarkers. […]
# (§2) over the calibration range of 30 to 20,000 ng/mL. The precision and accuracy of the method […]
# (§3) 30 ng/mL and within 15% at all other concentrations. No significant matrix effects were […]
# (§4) temperature (nominally +22C), after storage for 93 days in a freezer set at –80C and after four freeze-thaw cycles at nominally –80C / +22C. The method was considered to be suitable for measuring concentrations of CHF6001 in human sputum samples from […]
# TNFα = test: Ex-vivo lipopolysaccharide (LPS) stimulated TNFα in whole blood; design: species or system human; conditions: Day 32, geometric mean (%CV)
# Excerpt: A patient had to have a minimum of one acceptable sputum sample on Day 20, 26 or 32 to be included in the sputum biomarker evaluation for that treatment period, with the available cell count and biomarker data averaged for each patient. The mean change from baseline (pre-dose on Day 1 of each treatment period) was then compared between treatments using an analysis of covariance (ANCOVA) that included treatment, patient and period as fixed effects, and baseline values as covariate. The mean change from baseline to Day 32 for biomarkers in blood were analysed using the same model as for sputum data. All data were log-transformed before analysis, and the results are presented as ratio of geometric means. […]
# Approximately 80 to 100 cells were to be counted per square , with the number of live leukocytes, dead leukocytes and squamous cells counted. […]
# Only one of the sputum samples induced at 2 h post-dose on Days 20, 26 or 32 was used to evaluate CHF6001 concentration, with the evaluation performed only if a minimum of 300 mg of residual sputum remained. […] The concentration of CHF6001 was evaluated using a LC-MS/MS method following solid phase extraction. […]
# The levels of inflammatory biomarkers were evaluated from blood collected at 2 h post-dose […]
# Levels of biomarkers were assessed as follows: […]
# • Serum SP-D: Sandwich Immunoassay, using PheraSTAR Plate Reader . […]
# patients with COPD = test: Spirometry and symptoms (FEV1, FVC, CAT, TDI); assay type: in vivo, human; conditions: for TDI, adjusted mean difference vs placebo (95% CI): Day 32; for CAT, adjusted mean difference vs placebo (95% CI) / Pre-dose FEV1, adjusted mean difference vs placebo (95% CI) / Pre-dose FVC, adjusted mean difference vs placebo (95% CI): change from baseline to Day 32
# Experimental: Induced sputum was collected pre-dose on Day 1 of each treatment period (for the first treatment period, the sample could be collected up to 10 days prior to Day 1), and 2 h post-dose on Days 20, 26 and 32 (see the Additional file 1 for further detail on sputum and blood analysis methods). Blood samples were taken pre-dose on Day 1, and pre-dose and at 30 min, and 1, 1.5, 2, 3, 4, 6, 8 and 12 h post-dose on Day 32. Other pre-dose assessments on Days 1 and 32 were spirometry (forced expiratory volume in 1 s [FEV1] and forced vital capacity [FVC]), forced oscillometry, and COPD Assessment Test (CAT), with Baseline Dyspnea Index recorded on Day 1 and Transition Dyspnea Index (TDI) on Day 32. Central and peripheral airways mechanics were assessed using forced oscillometry, with the following values determined: inspiratory and expiratory resistance (at 5 and 19 Hz), inspiratory and expiratory reactance, tidal expiratory flow limitation and the percentage of flow limited breaths.
# The mean changes from baseline to Day 32 for lung function, CAT and TDI were analysed using similar methodology to sputum biomarkers, but were not log-transformed. […] The sputum concentration of CHF6001 was also evaluated at 2 h post-dose, using the mean of all values measured on Days 20, 26 and 32. Pharmacokinetic variables were summarised using geometric means and coefficients of variation, except for Tmax,ss, which is presented as median (range).
# [2] = Stability of CHF6001 in human sputum samples (bioanalytical validation); assay type: in vitro ADME
# Experimental: Effect of CHF6001 on inflammatory biomarkers – Additional file 1
# Approximately 80 to 100 cells were to be counted per square , with the number of live leukocytes, dead leukocytes and squamous cells counted.
# To determine differential cell counts, the sputum cell suspension was adjusted with Dulbecco's Phosphate -Buffered Saline to give 0.5x10^6 cells/mL. A total of 75 µL was used to prepare a cytoslide, which was then centrifuged at 450 rpm for 6 min and allowed to air dry for a minimum of 30 min before being fixed with methanol for 10 min. Four slides were prepared for each sample.
# as §1, §2, §3, §4
# Analysis of biomarkers and CHF6001 concentration in blood
# The levels of inflammatory biomarkers were evaluated from blood collected at 2 h post-dose
compound,measurement,setting,value
CS(=O)(=O)Nc1ccc(C(=O)O[C@@H](Cc2c(Cl)c[n+]([O-])cc2Cl)c2ccc(OC(F)F)c(OCC3CC3)c2)cc1OCC1CC1 [CHF6001],Sputum concentration in relation to dose,"[1]; 2 h post-dose, steady state (after Day 20), 800 vs 1600 μg BID",dose-proportionality was observed
same,Kp at 2 h,"[1]; both sexes, human, sputum relative to plasma, inhaled, 2 h post-dose, steady state",~2000
same,concentration at 2 h,"[1]; both sexes, human, 800 μg BID inhaled",4900 ng/mL
same,concentration at 2 h,"[1]; both sexes, human, 1600 μg BID inhaled",10200 ng/mL
same,"Tumour necrosis factor α ex-vivo, post-baseline",TNFα; 800 µg BID,2096.916 (177.0) pg/mL
same,"Tumour necrosis factor α ex-vivo, post-baseline",TNFα; 1600 µg BID,1750.418 (192.0) pg/mL
same,"TDI, adjusted mean difference vs placebo (95% CI)",patients with COPD; 800 µg BID,0.3 (–0.1 to 0.8)
same,"CAT, adjusted mean difference vs placebo (95% CI)",patients with COPD; 800 µg BID,–0.3 (–1.4 to 0.8)
same,"Pre-dose FEV1, adjusted mean difference vs placebo (95% CI)",patients with COPD; 800 µg BID,13 (–26 to 52) mL
same,"Pre-dose FVC, adjusted mean difference vs placebo (95% CI)",patients with COPD; 800 µg BID,25 (–58 to 109) mL
same,"TDI, adjusted mean difference vs placebo (95% CI)",patients with COPD; 1600 µg BID,–0.1 (–0.6 to 0.4)
same,"CAT, adjusted mean difference vs placebo (95% CI)",patients with COPD; 1600 µg BID,–0.3 (–1.3 to 0.8)
same,"Pre-dose FEV1, adjusted mean difference vs placebo (95% CI)",patients with COPD; 1600 µg BID,–35 (–74 to 4) mL
same,"Pre-dose FVC, adjusted mean difference vs placebo (95% CI)",patients with COPD; 1600 µg BID,–26 (–109 to 58) mL
same,Lung function (FEV1 and FVC) or symptoms vs placebo,patients with COPD; either dose (800 or 1600 μg BID),Neither CHF6001 dose differed from placebo
same,Storage time found stable in sputum,[2]; freezer set at –80C,93 days
same,Freeze-thaw cycles found stable in sputum,[2]; nominally –80C / +22C,four
same,Time found stable in sputum,[2]; sample processing temperature (nominally +22C),up to 24 h
